target: T1, recombinant EphB4 (Homo sapiens, UniProt P54760); test: In vitro EphB4 enzyme assay (Alphascreen); assay type: biochemical
T1 construct: amino acids 563-987; Swiss-Prot Acc; No. P54760; purchased ProQinase GmbH 0178-0000-3
T1 sequence (P54760 563-987): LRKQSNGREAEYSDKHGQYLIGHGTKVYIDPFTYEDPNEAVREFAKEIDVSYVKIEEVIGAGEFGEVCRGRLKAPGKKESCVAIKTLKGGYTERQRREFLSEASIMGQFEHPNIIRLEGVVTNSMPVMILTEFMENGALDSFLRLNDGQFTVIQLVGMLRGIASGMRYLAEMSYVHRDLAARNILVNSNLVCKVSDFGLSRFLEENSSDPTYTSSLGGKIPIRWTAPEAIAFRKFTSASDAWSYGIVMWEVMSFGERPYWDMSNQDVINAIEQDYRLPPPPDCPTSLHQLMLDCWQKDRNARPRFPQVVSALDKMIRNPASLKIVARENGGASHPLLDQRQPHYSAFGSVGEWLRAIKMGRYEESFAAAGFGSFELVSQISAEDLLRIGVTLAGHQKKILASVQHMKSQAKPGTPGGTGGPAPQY
In short: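 Recombinant EphB4 phosphorylated biotin-poly-GAT with Mg-ATP for 1 hr at room temperature; EDTA stop, then Alphascreen donor/acceptor (anti-phosphotyrosine) beads for 20 hrs in the dark. After minimum subtraction, signal plotted against compound concentration to derive IC50.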

| Structure (SMILES) | IC50 [nM] |
| --- | --- |
| COCCN(c1ccnc(Nc2cc(N3CCOCC3)cc(N3CCOCC3)c2)n1)c1cc(OC)ccc1C [Example 22.1, N-(3,5-dimorpholin-4-ylphenyl)-N′-(2-methoxyethyl)-N′-(5-methoxy-2-methyl-phenyl)pyrimidine-2,4-diamine] | 1480 |
| COc1ccc(C)c(N(c2ccnc(Nc3cc(N4CCOCC4)cc(N4CCOCC4)c3)n2)C(C)C)c1 [Example 22.2, N-(3,5-dimorpholin-4-ylphenyl)-N′-(5-methoxy-2-methyl-phenyl)-N′-propan-2-yl-pyrimidine-2,4-diamine] | 1860 |
| CCN(c1ccnc(Nc2cc(N3CCOCC3)cc(N3CCOCC3)c2)n1)c1cc(OC)ccc1C [Example 22.3, N-(3,5-dimorpholin-4-ylphenyl)-N′-ethyl-N′-(5-methoxy-2-methyl-phenyl)pyrimidine-2,4-diamine] | 1190 |
| COc1ccc(C)c(N(CCO)c2ccnc(Nc3cc(N4CCOCC4)cc(N4CCOCC4)c3)n2)c1 [Example 22.4, 2-[[2-[(3,5-dimorpholin-4-ylphenyl)amino]pyrimidin-4-yl]-(5-methoxy-2-methyl-phenyl)amino]ethanol] | 802 |
| CN(c1cccc(Cl)c1)c1ccnc(Nc2cc(N3CCOCC3)cc(N3CCC(O)CC3)c2)n1 [Example 23, 1-[3-({4-[(3-chlorophenyl)(methyl)amino]pyrimidin-2-yl}amino)-5-morpholin-4-ylphenyl]piperidin-4-ol] | 1.71 |
| CN1CCN(c2cc(Nc3nccc(N(C)c4cccc(Cl)c4)n3)cc(N3CCOCC3)c2)CC1 [Example 24, N4-(3-chlorophenyl)-N4-methyl-N2-[3-(4-methylpiperazin-1-yl)-5-morpholin-4-ylphenyl]pyrimidine-2,4-diamine] | 0.581 |

The remaining lines, values ahead:

| IC50 [nM] | Structure (SMILES) |
| --- | --- |
| 52.8 | Cc1cccc(CO)c1N(C)c1ccnc(Nc2cc(N3CCOCC3)cc(N3CCOCC3)c2)n1 [Example 25.1, (2-((2-(3,5-dimorpholinophenylamino)pyrimidin-4-yl)(methyl)amino)-3-methylphenyl)methanol] |
| 76.9 | COc1cccc(C)c1N(C)c1ccnc(Nc2cc(N3CCOCC3)cc(N3CCOCC3)c2)n1 [Example 25.2, N2-(3,5-dimorpholinophenyl)-N4-(2-methoxy-6-methylphenyl)-N4-methylpyrimidine-2,4-diamine] |
| 11.5 | CN(c1ccnc(Nc2cc(N3CCOCC3)cc(N3CCOCC3)c2)n1)c1cc(CO)ccc1F [Example 25.3, (3-((2-(3,5-dimorpholinophenylamino)pyrimidin-4-yl)(methyl)amino)-4-fluorophenyl)methanol] |
| 11.6 | CN(c1ccnc(Nc2cc(N3CCOCC3)cc(N3CCOCC3)c2)n1)c1cccc(CO)c1F [Example 25.4, (3-((2-(3,5-dimorpholinophenylamino)pyrimidin-4-yl)(methyl)amino)-2-fluorophenyl)methanol] |
| 127 | CC(=O)c1ccc(C)c(N(C)c2ccnc(Nc3cc(N4CCOCC4)cc(N4CCOCC4)c3)n2)c1 [Example 25.5, 1-(3-((2-(3,5-dimorpholinophenylamino)pyrimidin-4-yl)(methyl)amino)-4-methylphenyl)ethanone] |
| 7.88 | COc1ccc(F)c(N(C)c2ccnc(Nc3cc(N4CCOCC4)cc(N4CCOCC4)c3)n2)c1 [Example 25.6, N2-(3,5-dimorpholinophenyl)-N4-(2-fluoro-5-methoxyphenyl)-N4-methylpyrimidine-2,4-diamine] |
| 10.3 | COc1ccc(CO)c(N(C)c2ccnc(Nc3cc(N4CCOCC4)cc(N4CCOCC4)c3)n2)c1 [Example 25.7, (2-((2-(3,5-dimorpholinophenylamino)pyrimidin-4-yl)(methyl)amino)-4-methoxyphenyl)methanol] |
| 6.39 | CN(c1ccnc(Nc2cc(N3CCOCC3)cc(N3CCOCC3)c2)n1)c1cc(Cl)ccc1CO [Example 25.8, (4-chloro-2-((2-(3,5-dimorpholinophenylamino)pyrimidin-4-yl)(methyl)amino)phenyl)methanol] |

Reference: patent US20080242663A1, “NOVEL PYRIMIDINE DERIVATIVES 698” (ASTRAZENECA AB, priority 2007, published 2008)
